# ChEMBL document CHEMBL1201862, “PubChem BioAssay data set” (2004)
#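 Five compound concentrations were applied to cells in 96-well plates for 48 hours; endpoints were derived by simple linear interpolation of the resulting dose-response curve. At the GI50, growth is halved.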 Active and inactive are the calls of the source. Cut-off read from the data, not from the text of the source: active = GI50 up to about 1.1 µM and inactive = higher.
# Experiments:
# Test in all cases: NCI anticancer screen, dose series, 48 h
# [1] = tested on: SNB-19
# [2] = tested on: K562
# [3] = tested on: ACHN
# [4] = tested on: IGROV-1
# [5] = tested on: NCI-H226
# [6] = tested on: NCI-H23
# [7] = tested on: SK-MEL-28
# [8] = tested on: MOLT-4
# [9] = tested on: SNB-75
# [10] = tested on: SF-268
# [11] = tested on: 786-0
# [12] = tested on: HCC 2998
# [13] = tested on: SF-295
# [14] = tested on: HOP-92
# [15] = tested on: EKVX
# [16] = tested on: HL-60
# [17] = tested on: A549
# [18] = tested on: HCT-116
# [19] = tested on: XF498
# [20] = tested on: LOX IMVI
# [21] = tested on: OVCAR-3
# [22] = tested on: DLD-1
# [23] = tested on: OVCAR-8
# [24] = tested on: UACC-62
# [25] = tested on: U-251
# [26] = tested on: KM-20L2
# [27] = tested on: HT-29
# [28] = tested on: SK-OV-3
# [29] = tested on: RPMI-8226
# [30] = tested on: UACC-257
# [31] = tested on: SN12C
# [32] = tested on: HOP-18
# [33] = tested on: SW-620
# [34] = tested on: HCT-15
# [35] = tested on: SK-MEL-2
# [36] = tested on: SK-MEL-5
# [37] = tested on: Malme-3M
# [38] = tested on: CCRF-CEM
# [39] = tested on: M19-MEL
# [40] = tested on: LXFL 529
# [41] = tested on: COLO 205
# [42] = tested on: NCI-H460
# [43] = tested on: DMS-114
# [44] = tested on: SR
# [45] = tested on: CAKI-1
# [46] = tested on: TK-10
# [47] = tested on: HOP-62
# [48] = tested on: RXF 631
# [49] = tested on: NCI-H522
# [50] = tested on: SF-539
# [51] = tested on: KM12
# [52] = tested on: M14
# [53] = tested on: OVCAR-5
# [54] = tested on: RXF 393
# [55] = tested on: DMS-273
# [56] = tested on: OVCAR-4
# [57] = tested on: UO-31
# [58] = tested on: SNB-78
# [59] = tested on: A498
compound,measurement,setting,value
COc1ccc2[nH]cc(CCNC(=O)[C@](O)(Cc3cn(C)c4ccccc34)[C@@]3(O)OCC(O)C3O)c2c1 (some centres undefined),GI50,[1],> 100 µM (inactive)
same,GI50,[2],74 µM (inactive)
same,GI50,[3],> 100 µM (inactive)
same,GI50,[4],> 100 µM (inactive)
same,GI50,[5],> 100 µM (inactive)
same,GI50,[6],> 100 µM (inactive)
same,GI50,[7],> 100 µM (inactive)
same,GI50,[8],37 µM (inactive)
same,GI50,[9],38.5 µM (inactive)
same,GI50,[10],82.6 µM (inactive)
same,GI50,[11],> 100 µM (inactive)
same,GI50,[12],> 100 µM (inactive)
same,GI50,[13],> 100 µM (inactive)
same,GI50,[14],50.2 µM (inactive)
same,GI50,[15],> 100 µM (inactive)
same,GI50,[16],32.1 µM (inactive)
same,GI50,[17],> 100 µM (inactive)
same,GI50,[18],47.3 µM (inactive)
same,GI50,[19],90.6 µM (inactive)
same,GI50,[20],> 100 µM (inactive)
same,GI50,[21],> 100 µM (inactive)
same,GI50,[22],> 100 µM (inactive)
same,GI50,[23],> 100 µM (inactive)
same,GI50,[24],58.9 µM (inactive)
same,GI50,[25],> 100 µM (inactive)
same,GI50,[26],> 100 µM (inactive)
same,GI50,[27],> 100 µM (inactive)
same,GI50,[28],> 100 µM (inactive)
same,GI50,[29],39.4 µM (inactive)
same,GI50,[30],> 100 µM (inactive)
same,GI50,[31],> 100 µM (inactive)
same,GI50,[32],> 100 µM (inactive)
same,GI50,[33],> 100 µM (inactive)
same,GI50,[34],> 100 µM
same,GI50,[35],> 100 µM (inactive)
same,GI50,[36],> 100 µM (inactive)
same,GI50,[37],> 100 µM (inactive)
same,GI50,[38],35.8 µM (inactive)
same,GI50,[39],> 100 µM (inactive)
same,GI50,[40],67.8 µM (inactive)
same,GI50,[41],> 100 µM (inactive)
same,GI50,[42],77.4 µM (inactive)
same,GI50,[43],35.6 µM (inactive)
same,GI50,[44],> 100 µM (inactive)
same,GI50,[45],> 100 µM (inactive)
same,GI50,[46],> 100 µM (inactive)
same,GI50,[47],> 100 µM (inactive)
same,GI50,[48],> 100 µM (inactive)
same,GI50,[49],> 100 µM (inactive)
same,GI50,[50],40.4 µM (inactive)
same,GI50,[51],> 100 µM (inactive)
same,GI50,[52],> 100 µM (inactive)
same,GI50,[53],> 100 µM (inactive)
same,GI50,[54],> 100 µM (inactive)
same,GI50,[55],> 100 µM (inactive)
same,GI50,[56],> 100 µM (inactive)
CCN1C2=NC(=O)N(C)C(=O)C2(Cl)C(C(SC)S(=O)(=O)c2ccc(C)cc2)c2ccccc21 (centres undefined),GI50,[1],51.9 µM (inactive)
same,GI50,[2],20.7 µM (inactive)
same,GI50,[4],76.9 µM (inactive)
same,GI50,[5],32.4 µM (inactive)
same,GI50,[6],20 µM (inactive)
same,GI50,[7],24.3 µM (inactive)
same,GI50,[8],3.7 µM (inactive)
same,GI50,[9],20.7 µM (inactive)
same,GI50,[10],39.2 µM (inactive)
same,GI50,[11],25.1 µM (inactive)
same,GI50,[12],> 100 µM (inactive)
same,GI50,[57],19.9 µM (inactive)
same,GI50,[13],51.8 µM (inactive)
same,GI50,[14],30.6 µM (inactive)
same,GI50,[15],> 100 µM (inactive)
same,GI50,[16],4.2 µM (inactive)
same,GI50,[17],85.1 µM (inactive)
same,GI50,[18],20.1 µM (inactive)
same,GI50,[19],49.5 µM (inactive)
same,GI50,[20],31.3 µM (inactive)
same,GI50,[58],24.2 µM (inactive)
same,GI50,[21],24.1 µM (inactive)
same,GI50,[22],33.4 µM (inactive)
same,GI50,[23],21.2 µM (inactive)
same,GI50,[24],44.7 µM (inactive)
same,GI50,[25],79.8 µM (inactive)
same,GI50,[26],57.8 µM (inactive)
same,GI50,[27],34.8 µM (inactive)
same,GI50,[28],> 100 µM (inactive)
same,GI50,[29],12.7 µM (inactive)
same,GI50,[30],23.6 µM (inactive)
same,GI50,[31],61 µM (inactive)
same,GI50,[33],31.6 µM (inactive)
same,GI50,[35],55.3 µM (inactive)
same,GI50,[36],35.6 µM (inactive)
same,GI50,[37],47.3 µM (inactive)
same,GI50,[38],5.62 µM (inactive)
same,GI50,[39],24.7 µM (inactive)
same,GI50,[40],23.3 µM (inactive)
same,GI50,[41],31.6 µM (inactive)
same,GI50,[59],> 100 µM (inactive)
same,GI50,[42],83.4 µM (inactive)
same,GI50,[43],41.1 µM (inactive)
same,GI50,[45],34 µM (inactive)
same,GI50,[46],> 100 µM (inactive)
same,GI50,[47],> 100 µM (inactive)
same,GI50,[48],21.4 µM (inactive)
same,GI50,[49],11.8 µM (inactive)
same,GI50,[50],37.5 µM (inactive)
same,GI50,[52],24.2 µM (inactive)
same,GI50,[53],> 100 µM (inactive)
same,GI50,[55],31.6 µM (inactive)
same,GI50,[56],22.9 µM (inactive)
